The target in data set [1] is recombinant 5-HT2C receptor (human) (Homo sapiens (Human), UniProt P28335). Kind of data set: 5-HT2C competition binding assay ([125I]-DOI, SPA).
Experimental: [^125I]-(±)DOI binding experiments are carried out in SPA 96-well format. Membranes used in this assay are prepared from AV-12 cells stably expressing recombinant 5-HT2C receptor (human). The incubation is initiated by the addition of a mixture of WGA PVT SPA beads (0.5 mg/well, Perkin Elmer (MA, USA), RPNQ0001) and 2.5 μg membranes to assay buffer (50 mM Tris-HCl, 10 mM MgCl2, 0.5 mM EDTA, 10 μM pargyline, 0.1% ascorbic acid, pH7.4) containing 0.2 nM [[^125I]-(±)DOI and varying concentrations of the test compound (10 point concentration response curves). Non-specific binding is determined in the presence of 20 μM 1-(1-Naphthyl) piperazine. Samples are incubated for 4 hr. at room temperature (22° C.) and then read in a Microbeta Trilux.
Curves are evaluated using a 4-parameter logistic nonlinear equation to obtain the concentration of competitor causing 50% inhibition of radioligand binding (IC50). Equilibrium dissociation constants (Ki) are calculated according to the equation Ki=IC50/(1+L/Kd), where L equals the concentration of radioligand used in the experiment and Kd equals the equilibrium dissociation constant of the radioligand for the receptor, determined from standard saturation analysis or homologous competition experiments. […]
Data set [2] is described as follows: Plasma clearance in rat (intravenous). Format: in vivo. The settings on record: male, Sprague Dawley, rat, plasma, iv, 1 mg/kg, read-out: Clearance. Here is the method: Male Sprague Dawley rats (body weight range 250-320 g) with indwelling femoral arterial cannulae are obtained from Charles River, Wilmington, Mass. 01887, USA. Test compound is administered intravenously in solution (1 mL/kg) in 20% Captisol® in 22.5 mM phosphate buffer, pH 2, at a final drug concentration of 1.0 mg/mL (free base equivalents). Blood samples are obtained using the indwelling cannula over 24 hr. Samples of plasma are obtained by centrifugation and stored frozen (−20° C.), or on dry ice, prior to analysis.
Frozen plasma samples are thawed to room temperature for bioanalysis of concentrations of test compound. A related internal standard compound in acetonitrile/methanol (1:1, v/v) is added to all samples of plasma (1:1, v/v). The samples are centrifuged to remove precipitated protein prior to analysis. The supernatants are analysed by injection and rapid gradient elution on a Javelin Betasil C18 column (20×2.1 mm cartridge, Mobile phase A: Water/1 M NH4HCO3, 2000:10 v/v, Mobile Phase B: MeOH/1 M NH4HCO3, 2000:10 v/v). The eluted analytes are detected by LC-MS-MS analysis using a Sciex API 4000 triple quadrupole mass spectrometer. Concentrations of compound are determined from standards prepared and analysed under identical conditions. Clearance is calculated using non-compartmental analysis in Watson 7.4, Thermo Fisher Scientific, Inc.

The target in another data set is Dopamine D3 (Homo sapiens (Human), UniProt P35462). Kind of data set: Dopamine D3 binding. The source says:
(§1) Further, the compounds of the invention may be tested in binding assays and functional activity assays by well known methods for other physiologically important receptors such as, but not limited to, the hERG channel, other serotonin receptors (specifically 5-HT1B, 5-HT1D, receptors, lack of agonist activity at 5-HT2B receptors, 5-HT2C, 5-HT5, 5-HT6, and 5-HT7 receptors), dopaminergic receptors (specifically D1, D2, and D3), GABAA receptors, adrenergic receptors and monoamine transporters.

Data set [3] concerns the target recombinant 5-HT2A receptor (human) (Homo sapiens (Human), UniProt P28223). Kind of data set: 5-HT2A competition binding assay ([3H]-Ketanserin, SPA).
Experimental: [^3H]-Ketanserin binding experiments are carried out in SPA 96-well format. Membranes used in this assay are prepared from AV-12 cells stably expressing recombinant 5-HT2A receptor (human). The incubation is initiated by the addition of a mixture of WGA YSi SPA beads (1 mg/well, Perkin Elmer (MA, USA), RPNQ0011) and 2 μg membranes to assay buffer (67 mM Tris, 0.5 mM EDTA; pH 7.6) containing 3.1 nM [^3H]-Ketanserin and varying concentrations of the test compound (10 point concentration response curves). Non-specific binding is determined in the presence of 20 μM 1-(1-Naphthyl) piperazine. Samples are incubated for 4 hr. at room temperature (22° C.) and then read in a Microbeta Trilux.
In a further data set the target is Dopamine D2 (Homo sapiens (Human), UniProt P14416). The data set is described as follows: Dopamine D2 binding.
Sequence of Dopamine D2 (P14416 whole entry): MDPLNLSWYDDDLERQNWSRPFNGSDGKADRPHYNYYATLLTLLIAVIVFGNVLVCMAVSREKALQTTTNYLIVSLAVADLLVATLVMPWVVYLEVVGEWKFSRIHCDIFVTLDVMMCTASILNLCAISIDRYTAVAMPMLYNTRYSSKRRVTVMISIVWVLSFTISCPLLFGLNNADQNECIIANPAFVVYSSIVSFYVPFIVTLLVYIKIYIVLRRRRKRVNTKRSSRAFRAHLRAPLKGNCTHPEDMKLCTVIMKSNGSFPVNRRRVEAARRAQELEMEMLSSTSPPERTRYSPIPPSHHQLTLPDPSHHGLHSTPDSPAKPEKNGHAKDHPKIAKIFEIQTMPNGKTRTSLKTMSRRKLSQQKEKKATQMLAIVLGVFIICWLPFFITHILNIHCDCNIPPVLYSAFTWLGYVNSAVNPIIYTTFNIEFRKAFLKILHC
Excerpt: as §1

Data set [4] deals with human recombinant H1 receptor (Homo sapiens (Human), UniProt P35367). Kind of data set: H1 competition binding assay ([3H]-Pyrilamine, SPA). Here is the method: [^3H]-Pyrilamine binding experiments are carried out in SPA (scintillation proximity assay) 96-well format. Membranes used in this assay are prepared from HEK-293 cells stably expressing recombinant H1 receptor (human). The incubation is initiated by the addition of a mixture of WGA PVT SPA beads (1 mg/well, Perkin Elmer (MA, USA) RPNQ0001) and 3 μg membranes to assay buffer (67 mM Tris; pH 7.6) containing 3.5 nM [^3H]-Pyrilamine and varying concentrations of the test compound (10 point concentration response curves). Non-specific binding is determined in the presence of 10 μM Triprolidine. Samples are incubated for 4 hr. at room temperature (22° C.) and then read in a Microbeta Trilux.
Sequence of human recombinant H1 receptor (P35367 whole entry): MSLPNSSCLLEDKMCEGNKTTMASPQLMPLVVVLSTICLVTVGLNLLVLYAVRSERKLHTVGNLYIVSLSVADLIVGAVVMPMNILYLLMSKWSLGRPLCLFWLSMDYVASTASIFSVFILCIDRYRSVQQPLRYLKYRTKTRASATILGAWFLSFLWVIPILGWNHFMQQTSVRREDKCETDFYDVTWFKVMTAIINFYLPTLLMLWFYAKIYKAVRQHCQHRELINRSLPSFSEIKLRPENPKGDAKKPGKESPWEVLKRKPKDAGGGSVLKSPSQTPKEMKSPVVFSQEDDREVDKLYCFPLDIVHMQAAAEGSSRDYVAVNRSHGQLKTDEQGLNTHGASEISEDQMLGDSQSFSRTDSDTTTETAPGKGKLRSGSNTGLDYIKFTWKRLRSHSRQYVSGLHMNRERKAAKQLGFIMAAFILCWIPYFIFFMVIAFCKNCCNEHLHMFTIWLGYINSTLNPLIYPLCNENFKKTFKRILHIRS
Curves are evaluated using a 4-parameter logistic nonlinear equation to obtain the concentration of competitor causing 50% inhibition of radioligand binding (IC50). Equilibrium dissociation constants (Ki) are calculated according to the equation Ki=IC50/(1+L/Kd), where L equals the concentration of radioligand used in the experiment and Kd equals the equilibrium dissociation constant of the radioligand for the receptor, determined from standard saturation analysis or homologous competition experiments. Reported values for Ki, where n values are indicated, are shown as geometric mean±the standard error of the mean (SEM), with the number of replicate determinations indicated by n. […]

Sequence of Dopamine D3 (P35462 whole entry): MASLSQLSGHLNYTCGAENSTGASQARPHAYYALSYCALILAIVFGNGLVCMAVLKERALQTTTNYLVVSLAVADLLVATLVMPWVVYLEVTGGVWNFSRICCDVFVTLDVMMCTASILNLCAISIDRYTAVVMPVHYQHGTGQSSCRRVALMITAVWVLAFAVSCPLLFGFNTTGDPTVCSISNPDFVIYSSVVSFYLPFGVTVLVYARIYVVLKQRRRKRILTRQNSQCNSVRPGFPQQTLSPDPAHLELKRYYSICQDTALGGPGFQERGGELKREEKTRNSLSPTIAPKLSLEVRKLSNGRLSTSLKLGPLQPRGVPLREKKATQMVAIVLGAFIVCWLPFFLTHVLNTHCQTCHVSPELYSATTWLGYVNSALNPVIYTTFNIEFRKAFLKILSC
Sequence of recombinant 5-HT2C receptor (human) (P28335 whole entry, looked up): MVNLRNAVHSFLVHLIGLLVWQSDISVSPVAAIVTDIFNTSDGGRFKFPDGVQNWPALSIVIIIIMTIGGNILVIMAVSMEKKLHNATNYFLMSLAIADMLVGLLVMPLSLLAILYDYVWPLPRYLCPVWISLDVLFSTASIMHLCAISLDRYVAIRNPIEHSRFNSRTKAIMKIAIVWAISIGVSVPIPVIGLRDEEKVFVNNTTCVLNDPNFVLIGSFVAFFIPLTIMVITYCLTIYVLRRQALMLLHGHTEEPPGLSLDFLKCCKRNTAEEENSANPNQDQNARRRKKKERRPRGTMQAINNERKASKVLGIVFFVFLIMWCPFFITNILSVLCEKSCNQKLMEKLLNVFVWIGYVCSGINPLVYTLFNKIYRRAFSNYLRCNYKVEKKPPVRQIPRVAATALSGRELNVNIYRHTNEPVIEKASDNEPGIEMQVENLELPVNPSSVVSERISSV

As to `Cc1ccc2c(c1)Oc1sc(Cl)cc1C(N1CCN(CC(C)(C)C(=O)O)CC1)=N2` [Example 1, 3-[4-(2-Chloro-8-methyl-thieno[2,3-b][1,5]benzoxazepin-4-yl)piperazin-1-yl]-2,2-dimethyl-propanoic acid], the inhibition constant (Ki) (commonly the equilibrium dissociation constant of an inhibitor or competing ligand from its target) was 0.137 µM in data set [1]; greater than 5.51 µM on Dopamine D3; 0.00337 µM in data set [3]; 2.78 µM on Dopamine D2; 0.0206 µM in data set [4]. Also, in data set [2], the clearance (in general, the volume of plasma or blood freed of the substance per unit of time) was found to be 0.846 L/h/kg.
